From ChEMBL document CHEMBL4813981, “Synthesis and in vitro antibacterial activity of new aminothiazole-oximepiperidone cephalosporins” (2021)
In brackets after ≈: the same amount, converted by molar mass.

Assays:
Format in all cases: functional
Enterococcus faecalis [1] = test: Antibacterial activity against Enterococcus faecalis ATCC 51299 assessed as reduction in bacterial growth
Escherichia coli [2] = test: Antibacterial activity against Escherichia coli ATCC 25922 assessed as reduction in bacterial growth
Escherichia coli [3] = test: Antibacterial activity against Escherichia coli ATCC 35218 assessed as reduction in bacterial growth
Escherichia coli [4] = test: Antibacterial activity against Escherichia coli NCTC 13353 assessed as reduction in bacterial growth
Escherichia coli [5] = test: Antibacterial activity against Escherichia coli 15-3 overexpressing extended spectrum beta-lactamases assessed as reduction in bacterial growth
Escherichia coli [6] = test: Antibacterial activity against Escherichia coli 15-4 overexpressing extended spectrum beta-lactamases assessed as reduction in bacterial growth
Escherichia coli [7] = test: Antibacterial activity against Escherichia coli 15-5 overexpressing extended spectrum beta-lactamases assessed as reduction in bacterial growth
Klebsiella pneumoniae [8] = test: Antibacterial activity against Klebsiella pneumoniae ATCC 700603 assessed as reduction in bacterial growth
Klebsiella pneumoniae [9] = test: Antibacterial activity against Klebsiella pneumoniae ATCC BAA-1705 assessed as reduction in bacterial growth
Klebsiella pneumoniae [10] = test: Antibacterial activity against Multidrug resistant Klebsiella pneumoniae KR 15-1 assessed as reduction in bacterial growth
Klebsiella pneumoniae [11] = test: Antibacterial activity against Multidrug resistant Klebsiella pneumoniae KR 15-2 assessed as reduction in bacterial growth
Klebsiella pneumoniae [12] = test: Antibacterial activity against Multidrug resistant Klebsiella pneumoniae KR 15-3 assessed as reduction in bacterial growth
Acinetobacter baumannii [13] = test: Antibacterial activity against Acinetobacter baumannii NCTC 13304 assessed as reduction in bacterial growth
Acinetobacter baumannii [14] = test: Antibacterial activity against Multidrug resistant Acinetobacter baumannii AR 15-2 assessed as reduction in bacterial growth
Acinetobacter baumannii [15] = test: Antibacterial activity against Multidrug resistant Acinetobacter baumannii AR 15-3 assessed as reduction in bacterial growth
Acinetobacter baumannii [16] = test: Antibacterial activity against Multidrug resistant Acinetobacter baumannii AR 15-4 assessed as reduction in bacterial growth
Pseudomonas aeruginosa [17] = test: Antibacterial activity against Pseudomonas aeruginosa ATCC 27853 assessed as reduction in bacterial growth
Enterococcus faecalis [18] = test: Antibacterial activity against Enterococcus faecalis ATCC 51299 assessed as reduction in bacterial growth in the presence of Avibactam
Escherichia coli [19] = test: Antibacterial activity against Escherichia coli ATCC 25922 assessed as reduction in bacterial growth in the presence of Avibactam
Escherichia coli [20] = test: Antibacterial activity against Escherichia coli ATCC 35218 assessed as reduction in bacterial growth in the presence of Avibactam
Escherichia coli [21] = test: Antibacterial activity against Escherichia coli NCTC 13353 assessed as reduction in bacterial growth in the presence of Avibactam
Escherichia coli [22] = test: Antibacterial activity against Escherichia coli 15-3 overexpressing extended spectrum beta-lactamases assessed as reduction in bacterial growth in the presence of Avibactam
Escherichia coli [23] = test: Antibacterial activity against Escherichia coli 15-4 overexpressing extended spectrum beta-lactamases assessed as reduction in bacterial growth in the presence of Avibactam
Escherichia coli [24] = test: Antibacterial activity against Escherichia coli 15-5 overexpressing extended spectrum beta-lactamases assessed as reduction in bacterial growth in the presence of Avibactam
Klebsiella pneumoniae [25] = test: Antibacterial activity against Klebsiella pneumoniae ATCC 700603 assessed as reduction in bacterial growth in the presence of Avibactam
Klebsiella pneumoniae [26] = test: Antibacterial activity against Klebsiella pneumoniae ATCC BAA-1705 assessed as reduction in bacterial growth in the presence of Avibactam
Klebsiella pneumoniae [27] = test: Antibacterial activity against Multidrug resistant Klebsiella pneumoniae KR 15-1 assessed as reduction in bacterial growth in the presence of Avibactam
Klebsiella pneumoniae [28] = test: Antibacterial activity against Multidrug resistant Klebsiella pneumoniae KR 15-2 assessed as reduction in bacterial growth in the presence of Avibactam
Klebsiella pneumoniae [29] = test: Antibacterial activity against Multidrug resistant Klebsiella pneumoniae KR 15-3 assessed as reduction in bacterial growth in the presence of Avibactam
Acinetobacter baumannii [30] = test: Antibacterial activity against Acinetobacter baumannii NCTC 13304 assessed as reduction in bacterial growth in the presence of Avibactam
Acinetobacter baumannii [31] = test: Antibacterial activity against Multidrug resistant Acinetobacter baumannii AR 15-2 assessed as reduction in bacterial growth in the presence of Avibactam
Acinetobacter baumannii [32] = test: Antibacterial activity against Multidrug resistant Acinetobacter baumannii AR 15-3 assessed as reduction in bacterial growth in the presence of Avibactam
Acinetobacter baumannii [33] = test: Antibacterial activity against Multidrug resistant Acinetobacter baumannii AR 15-4 assessed as reduction in bacterial growth in the presence of Avibactam
Pseudomonas aeruginosa [34] = test: Antibacterial activity against Pseudomonas aeruginosa ATCC 27853 assessed as reduction in bacterial growth in the presence of Avibactam

Compound | MIC (Enterococcus faecalis [1]) [mg/L] | MIC (Escherichia coli [2]) [mg/L] | MIC (Escherichia coli [3]) [mg/L] | MIC (Escherichia coli [4]) [mg/L] | MIC (Escherichia coli [5]) [mg/L] | MIC (Escherichia coli [6]) [mg/L] | MIC (Escherichia coli [7]) [mg/L] | MIC (Klebsiella pneumoniae [8]) [mg/L] | MIC (Klebsiella pneumoniae [9]) [mg/L] | MIC (Klebsiella pneumoniae [10]) [mg/L] | MIC (Klebsiella pneumoniae [11]) [mg/L] | MIC (Klebsiella pneumoniae [12]) [mg/L] | MIC (Acinetobacter baumannii [13]) [mg/L] | MIC (Acinetobacter baumannii [14]) [mg/L] | MIC (Acinetobacter baumannii [15]) [mg/L] | MIC (Acinetobacter baumannii [16]) [mg/L] | MIC (Pseudomonas aeruginosa [17]) [mg/L] | further results
Nc1nc(/C(=N/OCc2cc(=O)c(O)cn2O)C(=O)N[C@@H]2C(=O)N3C(C(=O)O)=C(Cl)CS[C@H]23)cs1 | > 64 | 2 (≈ 3.68 µM) | 0.5 (≈ 0.921 µM) | > 64 | > 64 | > 64 | > 64 | > 64 | > 64 | > 64 | > 64 | > 64 | > 64 | > 64 | > 64 | > 64 | 4 (≈ 7.37 µM) | MIC (Enterococcus faecalis [18]): > 64 mg/L; MIC (Escherichia coli [19]): 0.125 mg/L; MIC (Escherichia coli [20]): 0.125 mg/L; MIC (Escherichia coli [21]): 1 mg/L; MIC (Escherichia coli [22]): 1 mg/L; MIC (Escherichia coli [23]): 1 mg/L; MIC (Escherichia coli [24]): 0.5 mg/L; MIC (Klebsiella pneumoniae [25]): > 64 mg/L; MIC (Klebsiella pneumoniae [26]): 8 mg/L; MIC (Klebsiella pneumoniae [27]): 2 mg/L; MIC (Klebsiella pneumoniae [28]): 1 mg/L; MIC (Klebsiella pneumoniae [29]): 1 mg/L; MIC (Acinetobacter baumannii [30]): 32 mg/L; MIC (Acinetobacter baumannii [31]): 16 mg/L; MIC (Acinetobacter baumannii [32]): 8 mg/L; MIC (Acinetobacter baumannii [33]): 8 mg/L; MIC (Pseudomonas aeruginosa [34]): 1 mg/L
C/C=C/C1=C(C(=O)O)N2C(=O)[C@@H](NC(=O)/C(=N\OCc3cc(=O)c(O)cn3O)c3csc(N)n3)[C@H]2SC1 | > 64 | 1 (≈ 1.82 µM) | 1 (≈ 1.82 µM) | > 64 | > 64 | > 64 | > 64 | 64 (≈ 117 µM) | 64 (≈ 117 µM) | > 64 | > 64 | > 64 | > 64 | > 64 | > 64 | > 64 | 16 (≈ 29.2 µM) | 
COCC1=C(C(=O)O)N2C(=O)[C@@H](NC(=O)/C(=N\OCc3cc(=O)c(O)cn3O)c3csc(N)n3)[C@H]2SC1 | > 64 | 2 (≈ 3.62 µM) | 0.25 (≈ 0.452 µM) | > 64 | > 64 | > 64 | > 64 | 64 (≈ 116 µM) | > 64 | > 64 | > 64 | > 64 | > 64 | > 64 | > 64 | > 64 | 2 (≈ 3.62 µM) | 
